The values below come from patent US12466813B2, “PRC1 inhibitors and methods of treatment therewith” (The Regents of the University of Michigan, priority 2018, dated 2025).

For one assay, the target named is T1, RING1B-BMI1 (Homo sapiens, UniProt Q99496).
T1 sequence (Q99496 1-336): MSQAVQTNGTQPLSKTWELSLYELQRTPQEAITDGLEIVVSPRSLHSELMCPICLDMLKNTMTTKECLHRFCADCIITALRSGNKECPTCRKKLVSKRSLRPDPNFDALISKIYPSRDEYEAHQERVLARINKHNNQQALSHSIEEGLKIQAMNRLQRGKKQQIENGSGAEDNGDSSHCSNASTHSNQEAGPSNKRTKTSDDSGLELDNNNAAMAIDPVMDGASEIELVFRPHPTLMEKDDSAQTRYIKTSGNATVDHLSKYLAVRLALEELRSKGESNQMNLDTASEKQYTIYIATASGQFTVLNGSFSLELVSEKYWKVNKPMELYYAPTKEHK
T1 sequence (P35226 1-326 partner): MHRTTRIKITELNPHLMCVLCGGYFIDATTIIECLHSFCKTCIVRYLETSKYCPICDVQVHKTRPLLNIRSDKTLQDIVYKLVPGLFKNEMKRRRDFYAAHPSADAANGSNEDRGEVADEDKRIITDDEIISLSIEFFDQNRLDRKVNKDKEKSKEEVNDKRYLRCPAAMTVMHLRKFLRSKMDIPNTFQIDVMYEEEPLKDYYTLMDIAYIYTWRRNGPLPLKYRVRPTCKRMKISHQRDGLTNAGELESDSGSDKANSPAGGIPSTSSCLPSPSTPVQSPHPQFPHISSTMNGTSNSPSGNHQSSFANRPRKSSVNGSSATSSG
The experiment in a line: KD classes of Table A (direct binding to Ring1B-Bmi1). The note with it: class given in Table A.

In another assay the test system is TEX cells. The experiment in a line: Differentiation and CD34 marker of TEX cells. The note with it: FIG. 4. It counts as cell-based. On the procedure:
FIGS. 4A-F. COMPOUND 1 inhibits PRC1 in TEX cells. FIG. 4A. Inhibition of H2Aub in TEX cells. FIG. 4B. Differentiation of TEX cells upon treatment with COMPOUND 1. […] FIG. 4C. GSEA analysis of TEX cells showing revers of stem cell signature. FIG. 4D. […] FIG. 4E. Gene expression changes upon treatment with COMPOUND 1. FIG. 4F.
Experiments were conducted during development of embodiments herein to develop small molecule inhibitors of PRC1 by targeting the Ring1B-BMI1 E3 ligase. These compounds bind directly to Ring1B-Bmi1 with low-micromolar affinity and inhibit PRC1 in vitro and in cells. […] Experiments were conducted during development of embodiments herein to test COMPOUND 1 in leukemia stem cell models represented by TEX cells (Ref. 22; herein incorporated by reference in its entirety) and M9-ENL1 cells (Ref. 23; herein incorporated by reference in its entirety). […] In some embodiments, COMPOUND 1 and COMPOUND 1 analogs are find use as agents in targeting leukemia and other cancer stem cells.

Some results are limits rather than exact numbers.

In the case of `CCc1c(-c2cccc3c2ccn3CCO)[nH]c(C(=O)O)c1-c1ccc(OC)cc1Cl` [COMPOUND 103], on RING1B-BMI1, the Kd (usually the constant that tells how readily two partners part at equilibrium) is over 100 µM. Further, the “differentiation of TEX cells” value with TEX cells is “does not induce differentiation”.
In the case of `O=C(O)c1cc(-c2ccccc2)c(-c2cccc3[nH]ccc23)[nH]1` [compound 118], the Kd at RING1B-BMI1 is over 100 µM.
`O=C(O)c1ccc(-c2cccc(O)c2)[nH]1` [compound 156] registered a Kd at RING1B-BMI1 of over 100 µM.
On to `CCc1cc(-c2[nH]c(C(=O)O)c(-c3c(Cl)ccc4[nH]ccc34)c2C(C)C)c2cc[nH]c2c1` [compound 9], for which, at RING1B-BMI1, the Kd is under 20 µM.
On the same count and under the same terms, then `Cc1ccc2[nH]ccc2c1-c1c(C(=O)O)[nH]c(-c2cc(F)cc3[nH]ccc23)c1C(C)C` [compound 241], with under 20 µM; and `COc1cc(Cl)c(-c2c(C(=O)O)[nH]c(-c3cccc4[nH]ccc34)c2C(C)C)cc1N` [compound 5], with under 20 µM; and `CC(C)c1c(-c2cc(F)cc3[nH]ccc23)[nH]c(C(=O)O)c1-c1cc(C(=O)N2CCCC2)cc2[nH]ccc12` [compound 198], with under 20 µM.
On to `COc1cc(-c2c(C(=O)O)[nH]c(-c3cc(F)cc4[nH]ccc34)c2C(C)C)c2c(C)c[nH]c2c1` [compound 183], for which, at RING1B-BMI1, the Kd is under 20 µM.
With `CCc1c(C(=O)O)[nH]c(-c2cccc3c2ccn3C)c1CC` [compound 111], the Kd on RING1B-BMI1 was over 100 µM.
On the same count and under the same terms, in the case of `COc1cc(-c2c(C(=O)O)[nH]c(-c3cc(F)cc4[nH]ccc34)c2C(C)C)c2ccn(CCNC(=O)c3nccs3)c2c1` [compound 177, 5-(6-fluoro-1H-indol-4-yl)-4-isopropyl-3-(6-methoxy-1-(2-(thiazole-2-carboxamido)ethyl)-1H-indol-4-yl)-1H-pyrrole-2-carboxylic acid] it was under 20 µM; in that of `COc1cc(-c2c(C(=O)O)[nH]c(-c3cc(F)cc4[nH]ccc34)c2C(C)C)c2cc[nH]c2c1` [compound 39], under 20 µM.
Compound `CCc1c(-c2cccc3[nH]ccc23)[nH]c(C(=O)O)c1CC1CCCCC1` [compound 78] registered a Kd on RING1B-BMI1 of 20 to 50 µM.
Take `CC(C)c1c(-c2cc(F)cc3[nH]ccc23)[nH]c(C(=O)O)c1-c1cccc2[nH]c(S(C)(=O)=O)cc12` [compound 228]: the Kd at RING1B-BMI1 was under 20 µM.
At RING1B-BMI1, `CC(C)c1c(-c2cc(F)cc3[nH]ccc23)[nH]c(C(=O)O)c1-c1cccc2ncoc12` [compound 205] came in with a Kd of under 20 µM.
Turning to `CC(C)c1c(-c2cc(F)cc3[nH]ccc23)[nH]c(C(=O)O)c1-c1ccc2[nH]ccc2c1` [compound 38], the Kd at RING1B-BMI1 is under 20 µM.
Same read-out and setting: then `CC(C)c1c(-c2cc(F)cc3[nH]ccc23)[nH]c(CS(C)(=O)=O)c1-c1cccc2[nH]ccc12` [compound 220], with under 20 µM; and `COc1ccc(-c2cc3c(-c4c(C(=O)O)[nH]c(-c5cc(F)cc6[nH]ccc56)c4C(C)C)ccnc3[nH]2)cc1` [compound 252], with under 20 µM.
Still for that read-out and setting: then `CC(C)c1c(-c2cc(F)cc3[nH]ccc23)[nH]c(C(N)=O)c1-c1cccc2[nH]c(C(=O)O)cc12` [compound 191], with under 20 µM; and `CCc1c(-c2cccc3[nH]ccc23)[nH]c(C(=O)O)c1-c1ccc(O)cc1Cl` [compound 92], with 50 to 100 µM.
Same read-out and setting: then `COc1ccc2[nH]ccc2c1-c1c(C(=O)O)[nH]c(-c2cc(F)cc3[nH]ccc23)c1C(C)C` [compound 244], with under 20 µM.
As to `CC(C)c1c(-c2cc(F)cc3[nH]ccc23)[nH]c(C(=O)O)c1-c1cccc2c1ccn2CCS(C)(=O)=O` [compound 267], the Kd on RING1B-BMI1 is under 20 µM.
Still for that read-out and setting: then `NC(=O)c1ccc(-c2cccc3[nH]ccc23)[nH]1` [compound 145], with over 100 µM.
`CCc1c(-c2cccc3[nH]ccc23)[nH]c(C(=O)O)c1C1CCCCC1` [compound 102] returned a Kd on RING1B-BMI1 of over 100 µM.
As to `CCCC(=O)NCCn1ccc2c(-c3c(C(=O)O)[nH]c(-c4cc(F)cc5[nH]ccc45)c3C(C)C)cc(OC)cc21` [compound 180], the Kd on RING1B-BMI1 is under 20 µM.
The same measure, in the same setting: then `CCc1c(-c2cccc3[nH]ccc23)[nH]c(C(=O)O)c1-c1cc(N)ccc1Cl` [compound 80], with 20 to 50 µM.
Take `CC(C)c1c(-c2cc(F)cc3[nH]ccc23)[nH]c(C(=O)O)c1-c1cccc2[nH]ccc12` [compound 35]: the Kd at RING1B-BMI1 is under 20 µM.
Consider `CC(C)c1c(-c2cccc3c(N)c[nH]c23)[nH]c(C(=O)O)c1-c1cccc2[nH]ccc12` [compound 223], for which, on RING1B-BMI1, the Kd is under 20 µM.
Still for that read-out and setting: in the case of `CC(C)c1c(-c2cc(F)cc3[nH]ccc23)[nH]c(C(=O)O)c1-c1cccc2[nH]c(-c3cc(O)no3)cc12` [compound 226] it was under 20 µM; in that of `CCc1c(-c2cccc3[nH]ccc23)[nH]c(C(=O)O)c1-c1ccccc1C` [compound 83], 20 to 50 µM; in that of `CCc1c(-c2cccc3[nH]ccc23)[nH]c(C(=O)O)c1CCc1ccccc1` [compound 90], 50 to 100 µM.
Same read-out and setting: then `CCc1c(-c2cccc3[nH]ccc23)[nH]c(C(=O)O)c1-c1ccc(N)cc1` [compound 105], with over 100 µM; and `COCCC(=O)NCCn1ccc2c(-c3c(C(=O)O)[nH]c(-c4cc(F)cc5[nH]ccc45)c3C(C)C)cc(OC)cc21` [compound 176], with under 20 µM.
On the same count and under the same terms, in the case of `O=C(O)c1ccc(-c2ccccc2O)[nH]1` [compound 130] it was over 100 µM; in that of `CCc1c(-c2cccc3[nH]ccc23)[nH]c(C(=O)O)c1-c1ccc2cc[nH]c2c1` [compound 25], under 20 µM; in that of `O=C(O)c1ccc(-c2cccc3ncccc23)[nH]1` [compound 160], over 100 µM.
As to `CC(C)Cc1cc2c(-c3c(C(=O)O)[nH]c(-c4cc(F)cc5[nH]ccc45)c3C(C)C)cccc2[nH]1` [compound 202], the Kd at RING1B-BMI1 was under 20 µM.
Same read-out and setting: in the case of `Cc1ccc(-c2ccc(C(=O)O)[nH]2)cc1` [compound 151] it was over 100 µM; in that of `CC(C)c1c(-c2cc(F)cc3[nH]ccc23)[nH]c(C(=O)O)c1-c1c(Cl)ccc2[nH]c(C(=O)O)cc12` [compound 53], under 20 µM.
Still for that read-out and setting: then `CCc1c(-c2cccc3[nH]ccc23)[nH]c(C(=O)O)c1-c1cccc(F)c1` [compound 86], with 20 to 50 µM.
With `COC(=O)c1ccc(-c2ccccc2)[nH]1` [compound 158], at RING1B-BMI1, the Kd was over 100 µM.
